Assays:
Type in all cases: in vivo
Settings in all cases: 250 g/ha, evaluated after 13 days, 100=total damage to plant, 0=no damage to plant
[1] = tested on: Amaranthus palmeri (AMAPA); experiment: Post-emergence biological efficacy, AMAPA
Protocol: (§1) Seeds of weeds and/or crops were sown in standard soil in pots (Amaranthus palmeri (AMAPA), (CHEAL), Euphorbia heterophylla (EPHHL), Ipomoea hederacea (IPOHE), Eleusine indica (ELEIN), Lolium perenne (LOLPE), Digitaria sanguinalis (DIGSA), Setaria faberi (SETFA), Echinochloa crus-galli (ECHCG)). After cultivation for 14 days under controlled conditions in a glasshouse (at 24/19° C., day/night; 16 hours light), the plants were sprayed with an aqueous spray solution derived from the formulation of the technical active ingredient in a small amount of acetone and a special solvent and emulsifier mixture referred to as IF50 (11.12% Emulsogen EL360 TM+44.44% N-methylpyrrolidone+44.44% Dowanol DPM glycol ether), to create a 50 g/l solution which was then diluted using 0.2% Genapol XO80 as diluent to give the desired final dose of test compound. Compounds were applied at a 250 g/ha unless otherwise stated. The test plants were then grown under controlled conditions in the glasshouse (at 24/18° C., day/night; 15 hours light; 50% humidity) and watered twice daily. After 13 days the test was evaluated (100=total damage to plant; 0=no damage to plant).

[2] = tested on: Ipomoea hederacea (IPOHE); experiment: Post-emergence biological efficacy, IPOHE
Protocol: as §1

[3] = tested on: Echinochloa crus-galli (ECHCG); experiment: Post-emergence biological efficacy, ECHCG
Protocol: as §1

Lolium perenne (LOLPE) [4] = experiment: Pre-emergence biological efficacy, LOLPE
Protocol: as §1, with “Lolium perenne (LOLPE),” for “(CHEAL),”, “(EPHHL),” for “(EPHHL), Ipomoea hederacea (IPOHE), Eleusine indica (ELEIN), Lolium perenne (LOLPE), Digitaria sanguinalis (DIGSA),”, “(ECHCG), Ipomoea hederacea (IPOHE)).” for “(ECHCG)).”, “one day” for “14 days”, “X080” for “XO80”

[5] = tested on: Euphorbia heterophylla (EPHHL); experiment: Pre-emergence biological efficacy, EPHHL
Protocol: as §1, with “Lolium perenne (LOLPE),” for “(CHEAL),”, “(EPHHL),” for “(EPHHL), Ipomoea hederacea (IPOHE), Eleusine indica (ELEIN), Lolium perenne (LOLPE), Digitaria sanguinalis (DIGSA),”, “(ECHCG), Ipomoea hederacea (IPOHE)).” for “(ECHCG)).”, “one day” for “14 days”, “X080” for “XO80”

Lolium perenne (LOLPE) [6] = experiment: Post-emergence biological efficacy, LOLPE
Protocol: as §1

[7] = tested on: Amaranthus palmeri (AMAPA); experiment: Pre-emergence biological efficacy, AMAPA
Protocol: as §1, with “Lolium perenne (LOLPE),” for “(CHEAL),”, “(EPHHL),” for “(EPHHL), Ipomoea hederacea (IPOHE), Eleusine indica (ELEIN), Lolium perenne (LOLPE), Digitaria sanguinalis (DIGSA),”, “(ECHCG), Ipomoea hederacea (IPOHE)).” for “(ECHCG)).”, “one day” for “14 days”, “X080” for “XO80”

[8] = tested on: Digitaria sanguinalis (DIGSA); experiment: Post-emergence biological efficacy, DIGSA
Protocol: as §1

CHEAL = experiment: Post-emergence biological efficacy, CHEAL
Protocol: as §1

Eleusine indica (ELEIN) = experiment: Post-emergence biological efficacy, ELEIN
Protocol: as §1

Setaria faberi (SETFA) [9] = experiment: Post-emergence biological efficacy, SETFA
Protocol: as §1

Setaria faberi (SETFA) [10] = experiment: Pre-emergence biological efficacy, SETFA
Protocol: as §1, with “Lolium perenne (LOLPE),” for “(CHEAL),”, “(EPHHL),” for “(EPHHL), Ipomoea hederacea (IPOHE), Eleusine indica (ELEIN), Lolium perenne (LOLPE), Digitaria sanguinalis (DIGSA),”, “(ECHCG), Ipomoea hederacea (IPOHE)).” for “(ECHCG)).”, “one day” for “14 days”, “X080” for “XO80”

[11] = tested on: Ipomoea hederacea (IPOHE); experiment: Pre-emergence biological efficacy, IPOHE
Protocol: as §1, with “Lolium perenne (LOLPE),” for “(CHEAL),”, “(EPHHL),” for “(EPHHL), Ipomoea hederacea (IPOHE), Eleusine indica (ELEIN), Lolium perenne (LOLPE), Digitaria sanguinalis (DIGSA),”, “(ECHCG), Ipomoea hederacea (IPOHE)).” for “(ECHCG)).”, “one day” for “14 days”, “X080” for “XO80”

[12] = tested on: Echinochloa crus-galli (ECHCG); experiment: Pre-emergence biological efficacy, ECHCG
Protocol: as §1, with “Lolium perenne (LOLPE),” for “(CHEAL),”, “(EPHHL),” for “(EPHHL), Ipomoea hederacea (IPOHE), Eleusine indica (ELEIN), Lolium perenne (LOLPE), Digitaria sanguinalis (DIGSA),”, “(ECHCG), Ipomoea hederacea (IPOHE)).” for “(ECHCG)).”, “one day” for “14 days”, “X080” for “XO80”

[13] = tested on: Euphorbia heterophylla (EPHHL); experiment: Post-emergence biological efficacy, EPHHL
Protocol: as §1

Compound | damage to plant, AMAPA [1] | damage to plant, IPOHE [2] | damage to plant, ECHCG [3] | damage to plant, LOLPE (Lolium perenne (LOLPE) [4]) | damage to plant, EPHHL [5] | damage to plant, LOLPE (Lolium perenne (LOLPE) [6]) | damage to plant, AMAPA [7] | damage to plant, DIGSA [8] | damage to plant, CHEAL (CHEAL) | damage to plant, ELEIN (Eleusine indica (ELEIN)) | damage to plant, SETFA (Setaria faberi (SETFA) [9]) | damage to plant, SETFA (Setaria faberi (SETFA) [10]) | damage to plant, IPOHE [11] | damage to plant, ECHCG [12] | damage to plant, EPHHL [13]
CCOC(=O)CC(C)OC(=O)c1cc(-c2ncc(C(F)(F)F)cc2Cl)ccc1Cl (stereo not drawn) [Compound 1-525, (3-ethoxy-1-methyl-3-oxo-propyl) 2-chloro-5-[3-chloro-5-(trifluoromethyl)-2-pyridyl]benzoate] | 100 | 80 | 100 | 100 | 100 | 100 | 100 | 100 | 100 | 100 | 100 | 100 | 70 | 100 | 100
CCOC(=O)C[C@H](C)OC(=O)c1cc(-c2ncc(C(F)(F)F)cc2Cl)ccc1Cl [Compound 1-525 (S-enantiomer), [(1S)-3-ethoxy-1-methyl-3-oxo-propyl] 2-chloro-5-[3-chloro-5-(trifluoromethyl)-2-pyridyl]-benzoate] | 100 | 90 | 100 | 100 | 100 | 100 | 100 | 100 | 100 | 100 | 100 | 100 | 70 | 100 | 100
CCOC(=O)C[C@H](C)OC(=O)c1cc(-c2ncc(C(F)(F)F)cc2Cl)c(F)cc1Cl [Compound 2-525 (S-enantiomer), [(1S)-3-ethoxy-1-methyl-3-oxo-propyl] 2-chloro-5-[3-chloro-5-(trifluoromethyl)-2-pyridyl]-4-fluoro-benzoate] | 100 | 100 | 100 | 100 | 100 | 100 | 100 | 100 | 100 | 100 | 100 | 100 | 100 | 100 | 100
CCOC(=O)C[C@@H](C)OC(=O)c1cc(-c2ncc(C(F)(F)F)cc2Cl)c(F)cc1Cl [Compound 2-525 (R-enantiomer), [(1R)-3-ethoxy-1-methyl-3-oxo-propyl] 2-chloro-5-[3-chloro-5-(trifluoromethyl)-2-pyridyl]-4-fluoro-benzoate] | 100 | 100 | 100 | 100 | 100 | 100 | 100 | 100 | 100 | 100 | 100 | 100 | 60 | 100 | 100
COC(=O)C[C@H](C)OC(=O)c1nc(-c2ncc(C(F)(F)F)cc2Cl)c(F)cc1Cl [Compound 11-524 (S-enantiomer), [(1S)-3-methoxy-1-methyl-3-oxo-propyl] 3-chloro-6-[3-chloro-5-(trifluoromethyl)-2-pyridyl]-5-fluoro-pyridine-2-carboxylate] | 100 | 100 | 100 | 100 | 100 | 100 | 100 | 100 | 100 | 100 | 100 | 100 | 100 | 100 | 100

Reference: patent publication US20250212879A1, “HERBICIDAL COMPOUNDS” (SYNGENTA CROP PROTECTION AG, priority 2022, published 2025)
